Measured values: US9492805B2, “Initiated chemical vapor deposition of vinyl polymers for the encapsulation of particles” (Massachusetts Institute of Technology, priority 2005, dated 2016)

Experiment: Release of ibuprofen from pellets of 25 μm microcrystals in pH buffers, light absorption at 220 nm
Type: physicochemical
Conditions: pH 7.4
Text: In another example, 25 μm ibuprofen microcrystals were encapsulated with the iCVD P(MAA-EDMA) copolymer and likewise ibuprofen release was tracked over time at different pH conditions. FIG. 26a gives the time release profiles, comparing uncoated and coated ibuprofen at pH 1.2 and 7.4. […] This enhanced protection in acids would be important for drugs such as ibuprofen and other non-steroidal anti-inflammatory drugs that are known to cause stomach ulceration and hemorrhaging, leading to mucosal damage and severe blood loss with acute dosage and prolonged administration. [S. E. Gabriel, L. Jaakkimainen, C. Bombardier, Ann. Intern. Med. 1991, 115, 787-796; and [ M. M. Wolfe, D. R. Lichtenstein, G. Singh, N. Engl. J. Med. 1999, 340, 1888-1899.] The increase in drug dissolution and activity by using finer drug particles would likely exacerbate this problem. […]
Release Measurements. […] For fluorescein, release was monitored at 490 nm, comparing fluorescein layered on silicon substrates that were exposed or encapsulated with an iCVD P(MAA-EDMA) coating. For ibuprofen, 25 μm ibuprofen microcrystals (DuPont), that were bare or encapsulated with an iCVD P(MAA-EDMA) coating, were compressed into pellets and their release monitored at 220 nm. Absorption was measured on a Varian Cary 6000i.

CC(C)Cc1ccc(C(C)C(=O)O)cc1 (stereo not shown) [ibuprofen]
release of ibuprofen at near neutral pH: relatively fast
